Test results from publication PMC10610289, “Novel Baicalein-Derived Inhibitors of Plasmodium falciparum” (Pathogens, 2023).
Where two headings read alike, the source gives them in different places. Blank lines part the entries; values can stand above or below the compound they belong to.

What was measured:
[1] = tested on: Dd2 DDD107498 (PfeEF2 Y186N); experiment: Cross-resistance panel, Dd2 DDD107498; format: cell-based, Plasmodium falciparum
Procedure: (§1) Parasite lines used in the study were P. falciparum 3D7 (Pf3D7 Chloroquine-sensitive) and Plasmodium falciparum K1 (PfK1 Chloroquine-resistant) sourced from the Malaria Research and Reference Reagent Resource Center (MR4), ATCC, Manassas, VA, USA. FNDR-10132 was tested against a cross-resistance panel at Swiss TPH, Allschwil, Switzerland.

Dd2 (wt) = experiment: Cross-resistance panel, Dd2 wt; format: cell-based, Plasmodium falciparum; conditions: strain Dd2 wt
Procedure: as §1

Dd2 DSM265 (Pfdhodh) = experiment: Cross-resistance panel, Dd2 DSM265; format: cell-based, Plasmodium falciparum
Procedure: as §1

[2] = tested on: Dd2 ELQ300 (PfcytB Ile22Leu); experiment: Cross-resistance panel, Dd2 ELQ300; format: cell-based, Plasmodium falciparum
Procedure: as §1

[3] = tested on: Plasmodium falciparum 3D7 (chloroquine-sensitive); experiment: Antimalarial assay (IC50 determination), asexual blood stage, SYBR green; format: cell-based; conditions: for antimalarial activity (in words): P. falciparum 3D7, highest tested concentration 25 µM; for IC50: P. falciparum 3D7, 72 h exposure, read-out: IC50
Procedure: as §1
As per the modified protocol stated by Trager and Jensen, 1976, Plasmodium falciparum parasite lines (Pf3D7 and PfK1) were cultured. Plasmodium strains were maintained in RPMI-1640 medium at 3–5% hematocrit supplemented with 0.2% w/v glucose, 0.5% w/v AlbuMaxII, 0.2% w/v NaHCO3, and 30 μg/mL gentamycin, and, additionally, 15 μM hypoxanthine was added and incubated at 37 °C with 5% O2, 5% CO2, and 90% N2. After 24 h, the medium was changed. After attaining high parasitemia (6–8% mature stage parasite), the culture was sub-passaged with fresh human RBCs.
All tested compounds were dissolved in a DMSO solvent and a prepared stock solution of 10 mM. The reference drug, Chloroquine diphosphate, was dissolved in CRPMI. Working solutions were made from stock solution after diluting in a CRPMI medium during the experiment. The maximum concentration of DMSO used in this study was <1%. It had no parasiticidal effect.
The P. falciparum (0.8–1% parasitemia and 1% hematocrit) synchronous culture was exposed for 72 h (at 37 °C, 5% O2, 5% CO2, and 90% N2) to the serially diluted compound in 96-well plates. A total of 100 µL of RBCs lytic buffer (5 mM EDTA, 20 mM Tris pH 7.5, 0.08% Triton X-100, and 0.008% Saponin) containing the SYBR green 1-X final concentration was distributed to each well and incubated for one hour at room temp in the dark. The plates were read under a fluorescence reader at an excitation of 485 ± 20 nm and emission of 535 ± 25 nm. The IC50 values were calculated based on the DNA content of the parasite relative to its control. An inhibitory concentration of 50% (IC50) was determined using the MS-EXEL template.

[4] = Microsomal stability assay; format: in vitro ADME, mouse; conditions: at 60 min, 1 µM, ß-NADPH, 37 °C
Procedure: Dipotassium hydrogen phosphate, Potassium dihydrogen phosphate, and formic acid were obtained from Merck, Rahway, NJ, USA. Methanol–acetonitrile was procured from Biosolve Chimie, Dieuze, France. Mouse liver microsomes, 20 mg/mL, were received from a third-party vendor in India. Imipramine HCl (catalog no. I0971) and Carbamazepine (catalog no. O0363) were procured from TCI, Gurugram, India. ß-NADPH (product code-99197) was procured from Sisco Research Laboratories, Mumbai, India.
The in vitro metabolic stability was determined in mouse liver microsomes. To prepare a mouse liver microsomes (MLM) homogenate, 100 µL of microsomes was resuspended in 100 mM phosphate buffer (0.607 g K2HPO4 and 0.212 g KH2PO4 dissolved in 50 mL of de-ionized water), achieving a working concentration of 0.625 mg/mL. Positive control (Imipramine) and test compounds (FNDR-10132, 10136, 10139, and 10999) were spiked individually into the MLM homogenate at a final concentration of 1 µm. To pre-incubate, they were placed in a water bath at 37 °C for 5 min. At least 30 µL was collected in triplicates (0 min samples), and the reaction was quenched using 90 µL of acetonitrile, which contained 500 ng/mL of Carbamazepine as an internal standard. Nicotinamide Adenine Dinucleotide Phosphate (NADPH) in phosphate buffer was added to the remaining MLM at a 1 mM final concentration and further incubated at 37 °C. At the indicated time intervals, 30 µL aliquots were sampled in triplicates, and the reaction was quenched with acetonitrile containing Carbamazepine as the internal standard. The samples were centrifugated for 10 min at 13,000 rpm, and the supernatant was separated for further analysis.
The analytical method for microsomal stability and protein binding assay is as follows: Chromatographic elution was achieved following isocratic flow on an X-Terra MS C18 50 × 4.6 mm, 2.5 µm, Waters, USA, maintained at 40 °C. The mobile phase contained aqueous 0.1% formic acid in water in solvent A and acetonitrile acidified with 0.1% formic acid in solvent B delivered at 0.300 mL/min. The flow was 15% from solvent A and 85% from solvent B for 4.5 min. A total of 7 μL of the sample was injected for the assay. […] Detection was performed through multiple reaction monitoring (MRM). The ion transitions are as follows: Imipramine, FNDR-10132, FNDR-10136, FNDR-10139, FNDR-10999, and IS at m/z 281.1→86.0, 355.2→115.1, 354.0→298.0, 350.0→186.1, 349→305.2, and m/z 237.0→194.0, respectively. An optimized cone voltage and collision energy were used to ionize the compounds. The MS parameters follow as follows: cone gas flow 50 (L/h); ion source temperature 150 °C; desolvation gas flow 900 (L/h); desolvation temperature 400 °C; and collision gas flow 0.10 (mL/min).

[5] = tested on: Dd2 GNF156 (Pfcarl Ile1139Lys); experiment: Cross-resistance panel, Dd2 GNF156; format: cell-based, Plasmodium falciparum
Procedure: as §1

[6] = tested on: Dd2 390048 (Pfpi4k S743T); experiment: Cross-resistance panel, Dd2 390048; format: cell-based, Plasmodium falciparum
Procedure: as §1

[7] = Plasmodium falciparum, 3D7, 72 h

IC50 [3, 7]: 220 nM
SMILES: O=c1cc(-c2ccc(-c3ccccc3)cc2)oc2cc(O)c(O)c(O)c12 [FNDR-10131]

IC50 [3, 7]: 1290 nM
SMILES: O=c1cc(-c2ccc(N3CCOCC3)cc2)oc2cc(O)c(O)c(O)c12 [FNDR-10133]

IC50 [3, 7]: 100 nM
Microsomal Stability (Mouse) [4]: ~19.05 ± 1.26%
SMILES: O=c1cc(-c2ccc(N3CCCCC3)cc2)oc2cc(O)c(O)c(O)c12 [FNDR-10136]

IC50 [3, 7]: 9650 nM
SMILES: O=C(O)c1ccc2oc(-c3ccc(N4CCOCC4)cc3)cc(=O)c2c1 [FNDR-10138]

IC50 [3, 7]: 4060 nM
Microsomal Stability (Mouse) [4]: ~29.92 ± 5.46%
SMILES: O=C(O)c1ccc2oc(-c3ccc(N4CCCCC4)cc3)cc(=O)c2c1 [FNDR-10139]

IC50 [3, 7]: 2480 nM
SMILES: O=C(CCCc1ccccc1)NCc1cc(=O)c2c(O)c(O)c(O)cc2o1 [FNDR-10143]

IC50 [3, 7]: 2930 nM
SMILES: COc1cccc(CCC(=O)NCc2cc(=O)c3c(O)c(O)c(O)cc3o2)c1 [FNDR-10146]

IC50 [3]: 920 nM
IC50 [3, 7]: 900 nM
SMILES: CCCCOc1ccc(C(=O)NCc2cc(=O)c3c(O)c(O)c(O)cc3o2)cc1 [FNDR-10148]

IC50 [3, 7]: 2740 nM
SMILES: O=C(CCCCCc1ccccc1)NCc1cc(=O)c2c(O)c(O)c(O)cc2o1 [FNDR-10149]

IC50 [3, 7]: 1120 nM
SMILES: O=C(NCc1cc(=O)c2c(O)c(O)c(O)cc2o1)c1ccc2ccc(Br)cc2c1 [FNDR-10150]

IC50 [3]: 10100 nM
IC50 [3, 7]: ~10000 nM
Microsomal Stability (Mouse) [4]: ~32.19 ± 0.29%
SMILES: O=C(O)c1ccc2oc(-c3ccc(C4CCCCC4)cc3)cc(=O)c2c1 [FNDR-10999]

IC50 [3, 7]: > 25000 nM
SMILES: O=C(O)c1ccc2c(=O)cc(-c3ccc(N4CCCCC4)cc3)oc2c1 [FNDR-11003]
antimalarial activity (in words) [3]: inactive

IC50 [3, 7]: > 25000 nM
SMILES: O=C(O)c1ccc2c(=O)cc(-c3ccc(C4CCCCC4)cc3)oc2c1 [FNDR-11012]
antimalarial activity (in words) [3]: inactive

IC50 [3, 7]: > 25000 nM
SMILES: CCN(CC)c1ccc(-c2cc(=O)c3ccc(C(=O)O)cc3o2)cc1 [FNDR-11014]
antimalarial activity (in words) [3]: inactive

IC50 [3, 7]: 32000 nM
SMILES: O=c1cc(-c2ccccc2)oc2cc(O)c(O)c(O)c12 [baicalein]

More lines, now with the values behind:

SMILES: O=C(NCCN1CCCC1)c1cc(-c2ccc(CN3CCOCC3)cc2)nc2ccc(F)cc12 [DDD107498, reference compound]
IC50 ([1]; Plasmodium falciparum, DD2): 1860 nM
Fold shift IC50 rel. Dd2 ([1]; strain Dd2 DDD107498): 7247
IC50 (Dd2 (wt); Plasmodium falciparum): 0.257 nM
Fold shift IC50 rel. Dd2 (Dd2 (wt)): 1.0

SMILES: Cc1cc(Nc2ccc(S(F)(F)(F)(F)F)cc2)n2nc(C(C)(F)F)nc2n1 [DSM265, reference compound]
IC50 (Dd2 DSM265 (Pfdhodh); Plasmodium falciparum): 150 nM
Fold shift IC50 rel. Dd2 (Dd2 DSM265 (Pfdhodh); strain Dd2 DSM265): 24
IC50 (Dd2 (wt); Plasmodium falciparum): 6.23 nM
Fold shift IC50 rel. Dd2 (Dd2 (wt)): 1.0

SMILES: COc1cc2[nH]c(C)c(-c3ccc(Oc4ccc(OC(F)(F)F)cc4)cc3)c(=O)c2cc1Cl [ELQ300, reference compound]
Fold shift IC50 rel. Dd2 ([2]; strain Dd2 ELQ300): 9.7
IC50 ([2]; strain Dd2 ELQ300, PfcytB Ile22Leu, read-out: IC50): 59.7 nM
Fold shift IC50 rel. Dd2 (Dd2 (wt)): 1.0
IC50 (Dd2 (wt)): 6.14 nM

SMILES: O=C(O)c1ccc2oc(-c3ccccc3)cc(=O)c2c1 [FNDR-10130]
antimalarial activity (in words) [3]: no activity
IC50 [3, 7]: > 25000 nM

SMILES: O=C(O)c1ccc2oc(-c3ccc(-c4ccccc4)cc3)cc(=O)c2c1 [FNDR-10137]
IC50 [3, 7]: 13200 nM

SMILES: CCCCCCCCCCCc1cc(=O)c2c(O)c(O)c(O)cc2o1 [FNDR-10142]
IC50 [3, 7]: 400 nM

SMILES: CCCCOc1ccc(-c2cc(=O)c3cc(C(=O)O)ccc3o2)cc1 [FNDR-11000]
antimalarial activity (in words) [3]: none of the compounds were active
IC50 [3, 7]: > 25000 nM

SMILES: CCN(CC)c1ccc(-c2cc(=O)c3cc(C(=O)O)ccc3o2)cc1 [FNDR-11001]
IC50 [3]: 10200 nM
IC50 [3, 7]: ~10000 nM

SMILES: CCCCCCc1ccc(-c2cc(=O)c3cc(C(=O)O)ccc3o2)cc1 [FNDR-11009]
IC50 [3, 7]: 10400 nM

SMILES: CCCCOc1ccc(-c2cc(=O)c3ccc(C(=O)O)cc3o2)cc1 [FNDR-11013]
antimalarial activity (in words) [3]: inactive
IC50 [3, 7]: > 25000 nM

SMILES: CS(=O)(=O)CCCOc1ccc(-c2cc(=O)c3cc(C(=O)O)ccc3o2)cc1 [FNDR-11096]
antimalarial activity (in words) [3]: none of the compounds were active
IC50 [3, 7]: > 25000 nM

SMILES: CC1(C)c2nc(-c3ccc(F)cc3)c(Nc3ccc(F)cc3)n2CCN1C(=O)CN [GNF156, reference compound]
IC50 (Dd2 (wt); Plasmodium falciparum): 9.12 nM
Fold shift IC50 rel. Dd2 (Dd2 (wt)): 1.0
IC50 ([5]; Plasmodium falciparum, DD2): 2160 nM
Fold shift IC50 rel. Dd2 ([5]; strain Dd2 GNF156): 237

SMILES: CS(=O)(=O)c1ccc(-c2cnc(N)c(-c3ccc(C(F)(F)F)nc3)c2)cc1 [MMV390048, reference compound]
IC50 ([6]; Plasmodium falciparum, DD2): 90.8 nM
Fold shift IC50 rel. Dd2 ([6]; strain Dd2 390048): 4.9
IC50 (Dd2 (wt); Plasmodium falciparum): 18.5 nM
Fold shift IC50 rel. Dd2 (Dd2 (wt)): 1.0
